According to the NIST ThermoML archive (doi:10.1021/je030167i):
± gives the expanded uncertainty stated by the source.

How the values were obtained:
[1] = xn = mol fraction of the nth substance listed; conditions: 101.3 kPa, Liquid
[2] = 101.3 kPa, Liquid

CC(C)CCl [1-chloro-2-methylpropane] + CC1CCCO1
[1]
Conditions	kinematic viscosity, 298.15 K [m2/s]	kinematic viscosity, 313.15 K [m2/s]	mass density, 298.15 K [kg/m3]	mass density, 313.15 K [kg/m3]
x1 = 0.0484	5.56e-07 ± 2e-08	4.88e-07 ± 1.8e-08	850.43 ± 0.49	834.97 ± 0.49
x1 = 0.0999	5.52e-07 ± 2e-08	4.85e-07 ± 1.8e-08	852.07 ± 0.49	836.22 ± 0.49
x1 = 0.1962	5.44e-07 ± 1.9e-08	4.78e-07 ± 1.8e-08	854.44 ± 0.49	838.53 ± 0.49
x1 = 0.3105	5.35e-07 ± 1.9e-08	4.7e-07 ± 1.7e-08	857.3 ± 0.49	841.23 ± 0.49
x1 = 0.4006	5.29e-07 ± 1.9e-08	4.65e-07 ± 1.7e-08	859.25 ± 0.49	843.09 ± 0.49
x1 = 0.4775	5.23e-07 ± 1.9e-08	4.6e-07 ± 1.7e-08	860.99 ± 0.49	844.5 ± 0.49
x1 = 0.6006	5.15e-07 ± 1.9e-08	4.52e-07 ± 1.7e-08	863.58 ± 0.49	846.94 ± 0.49
x1 = 0.7031	5.08e-07 ± 1.8e-08	4.46e-07 ± 1.7e-08	865.6 ± 0.49	848.88 ± 0.49
x1 = 0.8026	5.03e-07 ± 1.8e-08	4.4e-07 ± 1.6e-08	867.49 ± 0.49	850.49 ± 0.49
x1 = 0.9059	4.97e-07 ± 1.8e-08	4.34e-07 ± 1.6e-08	869.22 ± 0.49	852.11 ± 0.49
x1 = 0.9506	4.95e-07 ± 1.8e-08	4.32e-07 ± 1.6e-08	870.2 ± 0.49	852.87 ± 0.49
x1 = 1	4.92e-07 ± 1.8e-08	4.29e-07 ± 1.6e-08	870.93 ± 0.49	853.51 ± 0.49

CCCCO [butan-1-ol] + CC1CCCO1
[1], x1 = 1
Conditions	kinematic viscosity [m2/s]	mass density [kg/m3]
298.15 K	3.19e-06 ± 9.3e-08	805.56 ± 0.29
313.15 K	2.22e-06 ± 6.7e-08	794.19 ± 0.3

CC(C)(C)O [2-methylpropan-2-ol]
[2]
Conditions	kinematic viscosity [m2/s]	mass density [kg/m3]
298.15 K	5.59e-06 ± 1.6e-07	780.67 ± 0.36
313.15 K	2.74e-06 ± 8.8e-08	765.33 ± 0.37

CC(C)CO [2-methyl-1-propanol]
[2]
Conditions	kinematic viscosity [m2/s]	mass density [kg/m3]
298.15 K	4.25e-06 ± 1.2e-07	797.71 ± 0.35
313.15 K	2.74e-06 ± 8.2e-08	785.89 ± 0.36

CCC(C)O (centres undefined) [butan-2-ol] + CC1CCCO1
[1], x1 = 1
Conditions	kinematic viscosity [m2/s]	mass density [kg/m3]
298.15 K	3.73e-06 ± 1.1e-07	802.25 ± 0.49
313.15 K	2.24e-06 ± 7e-08	789.44 ± 0.5

CC1CCCO1 (centres undefined) [2-methyltetrahydrofuran]
[2]
Conditions	kinematic viscosity [m2/s]	mass density [kg/m3]
298.15 K	5.59e-07 ± 2e-08	849.28 ± 0.49
313.15 K	4.92e-07 ± 1.8e-08	834.01 ± 0.49

CCC(C)Cl (centres undefined) [2-chlorobutane] + CC1CCCO1
[1]
Conditions	kinematic viscosity, 298.15 K [m2/s]	kinematic viscosity, 313.15 K [m2/s]	mass density, 298.15 K [kg/m3]	mass density, 313.15 K [kg/m3]
x1 = 0.035	5.55e-07 ± 2e-08	4.88e-07 ± 1.8e-08	850.14 ± 0.49	834.84 ± 0.49
x1 = 0.0835	5.49e-07 ± 1.9e-08	4.83e-07 ± 1.8e-08	851.29 ± 0.49	835.54 ± 0.49
x1 = 0.1742	5.38e-07 ± 1.9e-08	4.74e-07 ± 1.7e-08	853.4 ± 0.49	837.42 ± 0.49
x1 = 0.2553	5.29e-07 ± 1.9e-08	4.65e-07 ± 1.7e-08	854.9 ± 0.49	839.1 ± 0.49
x1 = 0.3568	5.17e-07 ± 1.9e-08	4.56e-07 ± 1.7e-08	857.12 ± 0.49	840.87 ± 0.49
x1 = 0.4555	5.05e-07 ± 1.8e-08	4.46e-07 ± 1.7e-08	858.75 ± 0.49	842.26 ± 0.49
x1 = 0.5396	4.96e-07 ± 1.8e-08	4.38e-07 ± 1.6e-08	860.37 ± 0.49	843.91 ± 0.49
x1 = 0.697	4.81e-07 ± 1.8e-08	4.24e-07 ± 1.6e-08	863.09 ± 0.49	846.32 ± 0.49
x1 = 0.797	4.71e-07 ± 1.7e-08	4.15e-07 ± 1.6e-08	864.45 ± 0.49	847.77 ± 0.49
x1 = 0.8975	4.63e-07 ± 1.7e-08	4.06e-07 ± 1.5e-08	866.03 ± 0.49	848.87 ± 0.49
x1 = 0.9487	4.58e-07 ± 1.7e-08	4.01e-07 ± 1.5e-08	866.65 ± 0.49	849.41 ± 0.49
x1 = 1	4.54e-07 ± 1.7e-08	3.97e-07 ± 1.5e-08	867.31 ± 0.49	850.23 ± 0.49

CCC(C)Cl (centres undefined) [2-chlorobutane]
[2]
Conditions	kinematic viscosity [m2/s]	mass density [kg/m3]
298.15 K	4.54e-07 ± 1.7e-08	867.31 ± 0.49
313.15 K	3.97e-07 ± 1.5e-08	850.23 ± 0.49

CC1CCCO1 (centres undefined) [2-methyltetrahydrofuran] + CC(C)CCl
[1], x2 = 0
Conditions	kinematic viscosity [m2/s]	mass density [kg/m3]
298.15 K	5.59e-07 ± 2e-08	849.28 ± 0.49
313.15 K	4.92e-07 ± 1.8e-08	834.01 ± 0.49
